Measured values from patent US11053218B2, “3-(1-oxoisoindolin-2-yl)piperidine-2,6-dione derivatives and uses thereof” (Novartis AG, priority 2017, dated 2021).
Like-named read-outs stand apart in the source and are kept apart here.

How the values were obtained:
IKZF2 = IKZF2 (Homo sapiens, UniProt Q96SW2+Q9UKS7); test: Prolabel quantification of IKZF2 protein levels in 293GT cells; type: cell-based
Method: (§1) The Prolabel system from DiscoverX was used to develop high-throughput and quantitative assays to measure changes in IKZF1, IKZF2 and GSPT1 protein levels in response to compounds. The prolabel tag was derived from the alpha fragment of beta galactosidase and has the following protein sequence: mssnslavvlqrrdwenpgvtqlnrlaahppfaswrnseeartdrpsqqlrslnge. The complementary fragment of beta-galactosidase (from DiscoverX), is added to the prolabel tag to form an active beta galactosidase enzyme whose activity can be precisely measured. In this way, the levels of a fusion protein with the prolabel tag can be quantified in cell lysates.
(§2) Lentiviral vectors, based on the Invitrogen pLenti6.2/V5 DEST backbone, were constructed that placed the prolabel tag upstream of IKZF1, IKZF2 or GSPT1 and expressed the fusion protein from a CMV promoter.
(§3) To ensure moderate and consistent expression of the prolabel fusion proteins across all cells in the population, stable cell lines were constructed from cells expressing a single copy of the construct. Lentivirus packaged with the constructs was made using the Virapower kit from Invitrogen.
(§4) The levels of prolabel tagged fusion proteins in compound treated cell lines were measured as follows:
(§5) Day 1, Cells were diluted to 1.0×10^6 cells/ml in normal growth medium. 17.5 μL of cells were plated in each well of a solid white 384 well plate. Plates were incubated overnight in a 37° C. tissue culture incubator.
(§6) Day 2, Serial dilutions of compounds were made in 384 well plates from 10 mM stocks. 15 μL of DMSO was added to each well of a 384 well plate. In the first column 15 μL of stock compound was added. The solution was mixed and 15 μL was transferred to the next column. This was repeated until 20 two-fold dilutions were prepared. 2.5 μL of diluted compounds were transferred into 60 μL of cell culture medium in another 384 well plate, and mixed well. 2.5 μL of this mixture was added to the plated cells. The final DMSO concentration was 0.5% and the highest concentration of compound was 50 μM. Plates were incubated overnight (e.g., about 14 h, 18 h, or 24 h) in a 37° C. tissue culture incubator.
(§7) Day 3, Plates were removed from the incubator and allowed to equilibrate at rt for 30 minutes. Prolabel substrate (DiscoverX PathHunter Prolabel Detection Kit, User manual: 93-0180) was added as described by the manufacturers protocols. Plates were incubated at rt for three hours and luminescence was read using an Envision reader (Perkin Elmer) Data was analyzed and visualized using the Spotfire software package.

IKZF1 = IKZF1 (Homo sapiens, UniProt Q13422+Q96SW2); test: Prolabel quantification of IKZF1 protein levels in 293GT cells; type: cell-based; details: Prolabel assay, read-out: IKZF1 EC50
Method: as §1, §2, §3, §4, §5, §6, §7

[1] = 24 h, 10 μM, 24 h, 293GT cells; read-out: IKZF2 % protein reduction at 10 μM, 24 h
[2] = Prolabel assay, 293GT cells; read-out: IKZF2 EC50

IKZF2, sequence (Q9UKS7 whole entry, the tested form may be a part): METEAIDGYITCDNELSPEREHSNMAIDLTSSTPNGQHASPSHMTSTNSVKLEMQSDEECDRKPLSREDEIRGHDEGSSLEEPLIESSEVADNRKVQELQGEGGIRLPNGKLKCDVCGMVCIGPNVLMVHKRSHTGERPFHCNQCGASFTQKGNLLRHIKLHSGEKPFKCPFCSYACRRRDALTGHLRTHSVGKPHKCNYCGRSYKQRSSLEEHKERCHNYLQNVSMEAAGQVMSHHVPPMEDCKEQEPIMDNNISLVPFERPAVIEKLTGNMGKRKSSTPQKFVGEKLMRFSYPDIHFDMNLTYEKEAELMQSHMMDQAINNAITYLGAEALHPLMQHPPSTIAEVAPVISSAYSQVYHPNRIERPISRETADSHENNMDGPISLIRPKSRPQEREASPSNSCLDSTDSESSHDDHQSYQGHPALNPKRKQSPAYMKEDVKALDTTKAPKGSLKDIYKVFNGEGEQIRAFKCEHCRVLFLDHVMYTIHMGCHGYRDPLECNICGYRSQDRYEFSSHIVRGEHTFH
IKZF2, sequence (Q96SW2 whole entry, the tested form may be a part): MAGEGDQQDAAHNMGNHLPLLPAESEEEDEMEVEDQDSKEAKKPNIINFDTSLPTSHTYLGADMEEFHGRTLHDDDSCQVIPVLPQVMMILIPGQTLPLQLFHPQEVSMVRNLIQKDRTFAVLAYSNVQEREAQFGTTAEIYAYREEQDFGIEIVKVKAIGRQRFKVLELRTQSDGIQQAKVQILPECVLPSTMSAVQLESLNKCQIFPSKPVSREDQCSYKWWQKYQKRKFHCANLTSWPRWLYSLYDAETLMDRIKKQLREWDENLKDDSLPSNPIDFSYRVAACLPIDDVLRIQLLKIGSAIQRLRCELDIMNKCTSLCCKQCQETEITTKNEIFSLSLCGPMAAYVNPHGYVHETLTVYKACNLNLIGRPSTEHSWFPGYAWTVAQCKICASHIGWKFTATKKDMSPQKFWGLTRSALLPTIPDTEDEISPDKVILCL
IKZF2, sequence (Q16531 whole entry partner, the tested form may be a part): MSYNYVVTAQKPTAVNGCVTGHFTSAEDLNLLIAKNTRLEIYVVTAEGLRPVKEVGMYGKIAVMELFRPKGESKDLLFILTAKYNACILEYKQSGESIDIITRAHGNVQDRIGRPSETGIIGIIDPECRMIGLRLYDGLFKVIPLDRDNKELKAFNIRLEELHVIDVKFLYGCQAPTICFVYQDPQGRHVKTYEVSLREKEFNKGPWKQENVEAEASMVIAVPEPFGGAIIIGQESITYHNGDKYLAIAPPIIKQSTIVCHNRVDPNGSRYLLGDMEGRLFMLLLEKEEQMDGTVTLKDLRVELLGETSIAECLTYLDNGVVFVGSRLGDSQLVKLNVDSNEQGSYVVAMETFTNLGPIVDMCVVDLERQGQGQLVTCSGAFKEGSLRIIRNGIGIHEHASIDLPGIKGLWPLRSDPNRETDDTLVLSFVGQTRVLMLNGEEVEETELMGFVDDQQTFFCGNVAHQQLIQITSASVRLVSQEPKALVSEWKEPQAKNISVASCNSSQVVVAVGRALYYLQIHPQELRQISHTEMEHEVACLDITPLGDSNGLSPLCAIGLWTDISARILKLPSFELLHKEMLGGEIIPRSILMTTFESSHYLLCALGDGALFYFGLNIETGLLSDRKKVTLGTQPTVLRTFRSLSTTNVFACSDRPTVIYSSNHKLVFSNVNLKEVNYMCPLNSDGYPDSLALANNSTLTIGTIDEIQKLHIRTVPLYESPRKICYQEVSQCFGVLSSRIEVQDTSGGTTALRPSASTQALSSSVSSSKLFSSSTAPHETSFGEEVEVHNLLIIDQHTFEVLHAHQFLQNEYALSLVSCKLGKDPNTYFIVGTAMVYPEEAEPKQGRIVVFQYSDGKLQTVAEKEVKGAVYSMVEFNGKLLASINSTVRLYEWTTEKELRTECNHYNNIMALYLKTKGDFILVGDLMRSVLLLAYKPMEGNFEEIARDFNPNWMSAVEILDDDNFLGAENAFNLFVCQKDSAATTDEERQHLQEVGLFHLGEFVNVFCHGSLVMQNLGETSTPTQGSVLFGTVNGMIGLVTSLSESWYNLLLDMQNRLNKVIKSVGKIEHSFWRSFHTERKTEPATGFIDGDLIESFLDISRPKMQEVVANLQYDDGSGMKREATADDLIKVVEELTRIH
IKZF1, sequence (Q13422 whole entry): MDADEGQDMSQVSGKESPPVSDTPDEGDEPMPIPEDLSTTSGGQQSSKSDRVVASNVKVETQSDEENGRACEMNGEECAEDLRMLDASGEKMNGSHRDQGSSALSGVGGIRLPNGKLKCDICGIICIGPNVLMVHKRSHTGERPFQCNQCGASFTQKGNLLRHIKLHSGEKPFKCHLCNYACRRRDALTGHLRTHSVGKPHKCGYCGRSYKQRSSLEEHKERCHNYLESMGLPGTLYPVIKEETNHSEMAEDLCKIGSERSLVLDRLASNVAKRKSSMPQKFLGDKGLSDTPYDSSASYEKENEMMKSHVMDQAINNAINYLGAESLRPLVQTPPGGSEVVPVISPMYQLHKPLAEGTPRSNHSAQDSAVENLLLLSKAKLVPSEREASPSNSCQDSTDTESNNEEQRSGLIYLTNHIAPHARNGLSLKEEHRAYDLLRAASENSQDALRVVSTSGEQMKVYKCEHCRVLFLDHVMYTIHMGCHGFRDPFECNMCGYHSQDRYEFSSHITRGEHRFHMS
IKZF1, sequence (Q96SW2 whole entry): as the sequence (Q96SW2 whole entry, the tested form may be a part) above
IKZF1, sequence (Q16531 whole entry partner): as the sequence (Q16531 whole entry partner, the tested form may be a part) above

SMILES	inhibition at 10 µM (IKZF2; [1])	DC50 (IKZF2; [2])	DC50 (IKZF1)	inhibition at 10 µM (IKZF2; 10 μM, 24 h, 293GT cells; read-out: IKZF2 % protein reduction at 10 μM, 24 h)	IKZF2 protein levels as compared to the control (DMSO) (IKZF2; Prolabel assay in HEK293GT cells, bar graph)
O=C1CCC(N2Cc3cc(C4CCN(C(c5ccccc5)C(F)F)CC4)ccc3C2=O)C(=O)N1 (stereo not shown) [Compound I-209, 3-(5-(1-(2,2-difluoro-1-phenylethyl)piperidin-4-yl)-1-oxoisoindolin-2-yl)piperidine-2,6-dione]	40%	140 nM	> 30000 nM	–	–
COC(=O)c1coc(CN2CCC(c3ccc4c(c3)CN(C3CCC(=O)NC3=O)C4=O)CC2)n1 (stereo not shown) [Compound I-254, methyl 2-((4-(2-(2,6-dioxopiperidin-3-yl)-1-oxoisoindolin-5-yl)piperidin-1-yl)methyl)oxazole-4-carboxylate]	40%	680 nM	> 30000 nM	–	–
O=C1CCC(N2Cc3cc(C4CCN(Cc5c[nH]nc5-c5ccccc5)CC4)ccc3C2=O)C(=O)N1 (stereo not shown) [Compound I-148, 3-(1-oxo-5-(1-((3-phenyl-1H-pyrazol-4-yl)methyl)piperidin-4-yl)isoindolin-2-yl)piperidine-2,6-dione]	70%	39 nM	> 30000 nM	–	–
Cc1cccc(CN2CCC(c3ccc4c(c3)CN(C3CCC(=O)NC3=O)C4=O)CC2)c1 (stereo not shown) [Compound I-173, 3-(5-(1-(3-methylbenzyl)piperidin-4-yl)-1-oxoisoindolin-2-yl)piperidine-2,6-dione]	–	74 nM	> 30000 nM	65%	–
O=C1CCC(N2Cc3cc(C4CCN(Cc5cccc6c5OCCO6)CC4)ccc3C2=O)C(=O)N1 (stereo not shown) [Compound I-82, 3-(5-(1-((2,3-dihydrobenzo[b][1,4]dioxin-5-yl)methyl)piperidin-4-yl)-1-oxoisoindolin-2-yl)piperidine-2,6-dione]	60%	4 nM	> 30000 nM	–	–
CC(C)c1ccc(CN2CCC(c3ccc4c(c3)CN(C3CCC(=O)NC3=O)C4=O)CC2)cc1 (stereo not shown) [Compound I-45, 3-(5-(1-(4-isopropylbenzyl)piperidin-4-yl)-1-oxoisoindolin-2-yl)piperidine-2,6-dione]	80%	8 nM	> 30000 nM	–	–
O=C1CCC(N2Cc3cc(C4CCN(Cc5ccccn5)CC4)ccc3C2=O)C(=O)N1 (stereo not shown) [Compound I-58, 3-(1-oxo-5-(1-(pyridin-2-ylmethyl)piperidin-4-yl)isoindolin-2-yl)piperidine-2,6-dione]	60%	53 nM	> 30000 nM	–	–
O=C1CCC(N2Cc3cc(C4CCN(Cc5ccc(OC(F)(F)F)cc5)CC4)ccc3C2=O)C(=O)N1 (stereo not shown) [Compound I-51, 3-(1-oxo-5-(1-(4-(trifluoromethoxy)benzyl)piperidin-4-yl)isoindolin-2-yl)piperidine-2,6-dione]	60%	15 nM	> 30000 nM	–	–
O=C1CCC(N2Cc3cc(C4CCN(Cc5cccc(OC(F)(F)F)c5)CC4)ccc3C2=O)C(=O)N1 (stereo not shown) [Compound I-54, 3-(1-oxo-5-(1-(3-(trifluoromethoxy)benzyl)piperidin-4-yl)isoindolin-2-yl)piperidine-2,6-dione]	60%	20 nM	> 30000 nM	–	–
O=C1CCC(N2Cc3cc(C4CCN(Cc5cccc(Cl)c5)CC4)ccc3C2=O)C(=O)N1 (stereo not shown) [Compound I-16, 3-(5-(1-(3-chlorobenzyl)piperidin-4-yl)-1-oxoisoindolin-2-yl)piperidine-2,6-dione]	70%	8 nM	> 30000 nM	–	–
O=C1CCC(N2Cc3cc(C4CCN(Cc5ccc(OCc6ccccn6)cc5)CC4)ccc3C2=O)C(=O)N1 (stereo not shown) [Compound I-255, 3-(1-oxo-5-(1-(4-(pyridin-2-ylmethoxy)benzyl)piperidin-4-yl)isoindolin-2-yl)piperidine-2,6-dione]	60%	49 nM	> 30000 nM	–	–
CC(C)Oc1cccc(CN2CCC(c3ccc4c(c3)CN(C3CCC(=O)NC3=O)C4=O)CC2)n1 (stereo not shown) [Compound I-301, 3-(5-(1-((6-isopropoxypyridin-2-yl)methyl)piperidin-4-yl)-1-oxoisoindolin-2-yl)piperidine-2,6-dione]	60%	140 nM	320 nM	–	–
C[C@H](c1ccccc1)N1CCC(c2ccc3c(c2)CN(C2CCC(=O)NC2=O)C3=O)CC1 (single isomer, unassigned) [Compound I-247]	70%	17 nM	> 30000 nM	–	–
O=C1CCC(N2Cc3cc(C4CCN(Cc5ccc6ccccc6c5)CC4)ccc3C2=O)C(=O)N1 (stereo not shown) [Compound I-47, 3-(5-(1-(naphthalen-2-ylmethyl)piperidin-4-yl)-1-oxoisoindolin-2-yl)piperidine-2,6-dione]	80%	8 nM	> 30000 nM	–	–
O=C1CCC(N2Cc3cc(C4=CCN(Cc5ccccc5)C4)ccc3C2=O)C(=O)N1 (stereo not shown) [Compound I-191, 3-(5-(1-benzyl-2,5-dihydro-1H-pyrrol-3-yl)-1-oxoisoindolin-2-yl)piperidine-2,6-dione]	10%	4200 nM	> 30000 nM	–	–
O=C1CCC(N2Cc3cc(C4CCN(Cc5c[nH]nc5-c5cccnc5)CC4)ccc3C2=O)C(=O)N1 (stereo not shown) [Compound I-151, 3-(1-oxo-5-(1-((3-(pyridin-3-yl)-1H-pyrazol-4-yl)methyl)piperidin-4-yl)isoindolin-2-yl)piperidine-2,6-dione]	60%	95 nM	> 30000 nM	–	–
O=C1CCC(N2Cc3cc(C4CCN(Cc5ccc6cc[nH]c6n5)CC4)ccc3C2=O)C(=O)N1 (stereo not shown) [Compound I-140, 3-(5-(1-((1H-pyrrolo[2,3-b]pyridin-6-yl)methyl)piperidin-4-yl)-1-oxoisoindolin-2-yl)piperidine-2,6-dione]	80%	19 nM	> 30000 nM	–	–
Cn1ncc(CN2CCC(c3ccc4c(c3)CN(C3CCC(=O)NC3=O)C4=O)CC2)c1N (stereo not shown) [Compound I-124, 3-(5-(1-((5-amino-1-methyl-1H-pyrazol-4-yl)methyl)piperidin-4-yl)-1-oxoisoindolin-2-yl)piperidine-2,6-dione]	40%	9800 nM	> 30000 nM	–	–
O=C1CCC(N2Cc3cc(C4CCN(Cc5ccc(OCc6ccc(F)cc6)cc5)CC4)ccc3C2=O)C(=O)N1 (stereo not shown) [Compound I-244, 3-(5-(1-(4-((4-fluorobenzyl)oxy)benzyl)piperidin-4-yl)-1-oxoisoindolin-2-yl)piperidine-2,6-dione]	75%	91 nM	> 30000 nM	–	–
O=C1CCC(N2Cc3cc(C4CCN(Cc5cc(F)cc(F)c5)CC4)ccc3C2=O)C(=O)N1 (stereo not shown) [Compound I-26, 3-(5-(1-(3,5-difluorobenzyl)piperidin-4-yl)-1-oxoisoindolin-2-yl)piperidine-2,6-dione]	65%	7 nM	> 30000 nM	–	–
O=C1CCC(N2Cc3cc(C4CCN(Cc5ccc6[nH]ncc6c5)CC4)ccc3C2=O)C(=O)N1 (stereo not shown) [Compound I-219, 3-(5-(1-((1H-indazol-5-yl)methyl)piperidin-4-yl)-1-oxoisoindolin-2-yl)piperidine-2,6-dione]	80%	11 nM	> 25000 nM	–	decreased
O=C1CCC(N2Cc3cc(C4CCN(Cc5cccc(C(F)F)c5)CC4)ccc3C2=O)C(=O)N1 (stereo not shown) [Compound I-73, 3-(5-(1-(3-(difluoromethyl)benzyl)piperidin-4-yl)-1-oxoisoindolin-2-yl)piperidine-2,6-dione]	70%	11 nM	> 30000 nM	–	–
O=C1CCC(N2Cc3cc(C4CCN(Cc5ccccc5Cl)CC4)ccc3C2=O)C(=O)N1 (stereo not shown) [Compound I-18, 3-(5-(1-(2-chlorobenzyl)piperidin-4-yl)-1-oxoisoindolin-2-yl)piperidine-2,6-dione]	65%	19 nM	> 30000 nM	–	–
O=C1CCC(N2Cc3cc(C4CCN(Cc5cc(C6CC6)[nH]n5)CC4)ccc3C2=O)C(=O)N1 (stereo not shown) [Compound I-146, 3-(5-(1-((5-cyclopropyl-1H-pyrazol-3-yl)methyl)piperidin-4-yl)-1-oxoisoindolin-2-yl)piperidine-2,6-dione]	60%	170 nM	> 30000 nM	–	–
